Experiments:
[1] = biological target: SARS-CoV-2 Papain-like (PLpro) protease (Severe acute respiratory syndrome coronavirus 2, UniProt P0DTD1); test: SARS-CoV-2 Papain-like (PLpro) protease biochemical enzyme inhibition assay (ubiquitin-fluorophore substrate, Ub-R110); settings: Ub-R110 substrate; run in duplicate; read-out: PLpro IC50
SARS-CoV-2 replicon = test: microbe, parasite or virus in culture; format: cell-based; settings: Severe acute respiratory syndrome coronavirus 2, Huh-7

Structure (SMILES)	IC50 [1]	EC50 (SARS-CoV-2 replicon)
C#CCNC(=O)C(=O)NCc1ccccc1C(=O)NC1(c2cc(F)cc(-c3cnn(C)c3)c2)CC1 [Example 238]	< 100 nM	< 1000 nM
Cc1cccnc1C#CCNC(=O)C(=O)NCc1ccccc1C(=O)NC1(c2cc(F)cc(-c3cnn(C4CC4)c3)c2)CC1 [Example 262]	< 100 nM	< 1000 nM
O=C(C#CCNC(=O)C(=O)NCc1ccccc1C(=O)NC1(c2cccc3ccccc23)CC1)N[C@H]1CC[C@H](C(F)(F)F)CC1 [Example 520]	< 100 nM	< 1000 nM
N#CCNC(=O)C(=O)NCc1ccccc1C(=O)NC1(c2cccc(C(F)(F)F)c2Cl)CC1 [Example 370]	100 to 1000 nM	1000 to 10000 nM
N#CCNC(=O)C(=O)NCc1ccccc1C(=O)NC1(c2cccc3ccccc23)CC1 [Example 25]	< 100 nM	< 1000 nM
C[C@@H](C#Cc1ncc(F)cn1)NC(=O)C(=O)NCc1ccccc1C(=O)NC1(c2cc(F)cc(-c3cnn(C4CC4)c3)c2)CC1 [Example 144]	< 100 nM	< 1000 nM
COCCN(C)C(=O)/C=C/CNC(=O)C(=O)NCc1ccccc1C(=O)NC1(c2cccc3ccccc23)CC1 [Example 556]	100 to 1000 nM	1000 to 10000 nM
N#CC1(NC(=O)/C=C/CNC(=O)C(=O)NCc2ccccc2C(=O)NC2(c3cccc4ccccc34)CC2)CC1 [Example 564]	100 to 1000 nM	1000 to 10000 nM
O=C(NCC#CBr)C(=O)NCc1ccccc1C(=O)NC1(c2ccc3ccccc3c2)CC1 [Example 163]	< 100 nM	< 1000 nM
C#CCNC(=O)C(=O)NCc1ccccc1C(=O)NC1(c2ccc(F)c(-c3cccs3)c2)CC1 [Example 223]	< 100 nM	< 1000 nM
C#CCNC(=O)C(=O)NCc1ccccc1C(=O)NC1(c2cc(-c3c(C)n[nH]c3C)cc(C(F)(F)F)c2)CC1 [Example 477]	< 100 nM	< 1000 nM
O=C(NCC#Cc1cncnc1)C(=O)NCc1ccccc1C(=O)NC1(c2cccc3ccccc23)CC1 [Example 158]	< 100 nM	< 1000 nM
N#CCNC(=O)C(=O)NCc1ccccc1C(=O)NC1(c2cc(F)c(F)c(-c3cnn(C4CC4)c3)c2)CC1 [Example 240]	< 100 nM	> 10000 nM
Cc1n[nH]c(C)c1-c1cc(C(F)(F)F)cc(C2(NC(=O)c3ccccc3CNC(=O)C(=O)NCC#N)CC2)c1 [Example 476]	100 to 1000 nM	1000 to 10000 nM
COc1cccnc1C#CCNC(=O)C(=O)NCc1ccccc1C(=O)NC1(c2ccc3nn(C)cc3c2)CC1 [Example 270]	< 100 nM	< 1000 nM
COc1cccnc1C#CCNC(=O)C(=O)NCc1ccccc1C(=O)NC1(c2cc(F)cc(-c3cn(C)nc3C)c2)CC1 [Example 258]	< 100 nM	< 1000 nM
O=C(NCC#Cc1nccs1)C(=O)NCc1ccccc1C(=O)NC1(c2ccc3c4c(cccc24)CC3)CC1 [Example 440]	< 100 nM	< 1000 nM
C#CCNC(=O)C(=O)NCc1ccccc1C(=O)NC1(c2ccc(F)c(-c3cnn(C)c3)c2)CC1 [Example 232]	< 100 nM	< 1000 nM
CC1(CNC(=O)C(=O)NCc2ccccc2C(=O)NC2(c3cccc4ccccc34)CC2)CN(C#N)C1 [Example 429]	< 100 nM	< 1000 nM
N#CCNC(=O)C(=O)NCc1ccccc1C(=O)NC1(c2cc(-c3cn(-c4ccccn4)nn3)cc3ccccc23)CC1 [Example 427]	< 100 nM	< 1000 nM
COC(=O)/C=C/CNC(=O)C(=O)NCc1ccccc1C(=O)N[C@H](C)c1cc(-c2ccoc2)cc(C(F)(F)F)c1 [Example 465]	< 100 nM	< 1000 nM
N#CCNC(=O)C(=O)NCc1ccccc1C(=O)NC1(c2cc(-c3cnn(C4CC4)c3)cc(C3CC3)c2)CC1 [Example 133]	< 100 nM	1000 to 10000 nM

Structure (SMILES)	IC50 [1]	EC50 (SARS-CoV-2 replicon)
N#CN1CC[C@H](C(=O)NCc2ccccc2C(=O)NC2(c3cc(-c4cnn(C5CC5)c4)cc4ncccc34)CC2)C1 [Example 419]	< 100 nM	< 1000 nM
N#CN1CC(CNC(=O)C(=O)NCc2ccccc2C(=O)NC2(c3cccc4ccccc34)CC2)C1 [Example 435]	< 100 nM	< 1000 nM
C=CC(=O)NNC(=O)C(=O)NCc1ccccc1C(=O)N[C@H](C)c1cccc2ccccc12 [Example 22]	100 to 1000 nM	> 10000 nM
N#CCNC(=O)C(=O)NCc1ccccc1C(=O)NC1(c2ccc(F)c(Br)c2)CC1 [Example 217]	100 to 1000 nM	> 10000 nM
CN1CCC(n2cc(-c3cc(F)cc(C4(NC(=O)c5ccccc5CNC(=O)C(=O)NCC#Cc5ncco5)CC4)c3)cn2)CC1 [Example 257]	< 100 nM	< 1000 nM
Cc1cccnc1C#CCNC(=O)C(=O)NCc1ccccc1C(=O)NC1(c2ccc3nn(C)cc3c2)CC1 [Example 271]	< 100 nM	< 1000 nM
N#Cc1cccc(C#CCNC(=O)C(=O)NCc2ccccc2C(=O)NC2(c3ccc4ccccc4c3)CC2)n1 [Example 193]	< 100 nM	< 1000 nM
C=C(C)c1ccc(-c2cc(C3(NC(=O)c4ccccc4CNC(=O)[C@H]4CCN(C#N)C4)CC3)c3ccccc3c2)s1 [Example 418]	< 100 nM	< 1000 nM
C[C@@H](NC(=O)c1c(F)cccc1CNC(=O)C(=O)NCC#N)c1cccc2ccccc12 [Example 29]	< 100 nM	1000 to 10000 nM
O=C(/C=C/CNC(=O)C(=O)NCc1ccccc1C(=O)NC1(c2cccc3ccccc23)CC1)NCC(F)(F)F [Example 572]	100 to 1000 nM	> 10000 nM
O=C(NC/C=C/C(=O)N1CCCCO1)C(=O)NCc1ccccc1C(=O)NC1(c2cccc3ccccc23)CC1 [Example 566]	100 to 1000 nM	1000 to 10000 nM
C[C@@H](NC(=O)c1ccccc1CNC(=O)C(=O)NCC#N)c1cc(-c2ccoc2)cc(C(F)(F)F)c1 [Example 464]	< 100 nM	1000 to 10000 nM
N#Cc1cccc(NC(=O)/C=C/CNC(=O)C(=O)NCc2ccccc2C(=O)NC2(c3cccc4ccccc34)CC2)c1 [Example 574]	100 to 1000 nM	1000 to 10000 nM
O=C(NCC#Cc1ncccc1OC(F)(F)F)C(=O)NCc1ccccc1C(=O)NC1(c2ccc3ccccc3c2)CC1 [Example 201]	< 100 nM	< 1000 nM
C#CCNC(=O)C(=O)NCc1ccccc1C(=O)NC1(c2cc(F)cc(-c3cccs3)c2)CC1 [Example 224]	< 100 nM	< 1000 nM
Cc1cccnc1C#C[C@H](C)NC(=O)C(=O)NCc1ccccc1C(=O)NC1(c2cc(F)cc(-c3cnn(C4CC4)c3)c2)CC1 [Example 266]	< 100 nM	< 1000 nM
C#CCNC(=O)C(=O)NCc1ccccc1C(=O)NC1(c2cc(Cl)cc(-c3cn(C)nc3C)c2)CC1 [Example 485]	< 100 nM	< 1000 nM
CC(C)[C@@H](C#Cc1nccs1)NC(=O)C(=O)NCc1ccccc1C(=O)NC1(c2ccc3nn(C)cc3c2)CC1 [Example 97]	100 to 1000 nM	< 1000 nM
C[C@@H](C#Cc1ncccc1CC#N)NC(=O)C(=O)NCc1ccccc1C(=O)NC1(c2ccc3nn(C)cc3c2)CC1 [Example 209]	< 100 nM	< 1000 nM
C[C@@H](C#Cc1nccs1)NC(=O)C(=O)NCc1ccccc1C(=O)NC1(c2cc(Cl)c3nn(C4CC4)cc3c2)CC1 [Example 335]	< 100 nM	< 1000 nM
C[C@@H](C#Cc1ccc(C#N)cc1F)NC(=O)C(=O)NCc1ccccc1C(=O)NC1(c2ccc3nn(C)cc3c2)CC1 [Example 98]	< 100 nM	< 1000 nM
